Like-named read-outs stand apart in the source and are kept apart here.
Tests used:
[1] = biological target: T1, DPP-IV (Homo sapiens, UniProt P27487); test: Test for determination of DPP-IV inhibiting activity (Gly-Pro-AMC cleavage by human plasma); type: biochemical
T1 construct: added was 5 μL of plasma collected from healthy adult volunteers; from tissue; host or cells: plasma of healthy adult volunteers
Protocol: (1) Test for Determination of DPP-IV Inhibiting Activity:
The reaction was performed in a 96-well flat-bottom microtiter plate. A varying concentration of the test compound was added to an aqueous solution comprised of 25 mM Tris-HCl, 140 mM sodium chloride, 10 mM potassium chloride, 1% RIA-grade bovine serum albumin, and 0.01 mM Gly-Pro-AMC (Bachem). To this reaction solution (95 μL/well), added was 5 μL of plasma collected from healthy adult volunteers, and incubated at room temperature for 20 minutes. […] The data of 3 wells under the same conditions were averaged.
The inhibition in the test group, relative to the solvent-added group was calculated, and the IC50 value thereof was obtained through logistic analysis.

[2] = biological target: T2, plasma DPP-IV (Mus musculus, UniProt P28843); test: Test for DPP-IV inhibiting activity duration in mice; type: in vivo; details: po
T2 construct: The collected blood was immediately centrifuged to isolate the plasma; from tissue; host or cells: plasma of male ICR mice (Nippon SLC)
T2 sequence (P28843 37-760 limits assumed): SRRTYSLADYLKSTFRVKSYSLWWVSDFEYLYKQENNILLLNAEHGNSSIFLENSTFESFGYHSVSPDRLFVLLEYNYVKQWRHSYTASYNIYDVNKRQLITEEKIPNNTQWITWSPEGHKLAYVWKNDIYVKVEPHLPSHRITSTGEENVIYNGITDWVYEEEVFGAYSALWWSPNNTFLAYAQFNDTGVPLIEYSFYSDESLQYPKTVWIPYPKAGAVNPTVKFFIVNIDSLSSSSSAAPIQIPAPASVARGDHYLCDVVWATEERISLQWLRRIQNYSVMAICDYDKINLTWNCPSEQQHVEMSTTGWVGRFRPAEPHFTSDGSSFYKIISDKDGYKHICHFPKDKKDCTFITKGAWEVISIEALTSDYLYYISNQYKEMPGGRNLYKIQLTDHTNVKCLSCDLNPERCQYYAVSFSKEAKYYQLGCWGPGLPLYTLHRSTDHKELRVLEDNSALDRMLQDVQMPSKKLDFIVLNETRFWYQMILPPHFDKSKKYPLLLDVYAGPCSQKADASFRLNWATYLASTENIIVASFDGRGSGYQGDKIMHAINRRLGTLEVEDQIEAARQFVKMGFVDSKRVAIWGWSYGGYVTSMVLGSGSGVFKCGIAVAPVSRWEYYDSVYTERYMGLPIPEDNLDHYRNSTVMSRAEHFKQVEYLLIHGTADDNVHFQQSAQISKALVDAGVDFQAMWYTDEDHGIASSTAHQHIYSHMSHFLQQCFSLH
Protocol: (2) Test for DPP-IV Inhibiting Activity Duration in Mice:
(§1) Male ICR mice (Nippon SLC) were grouped into a test group and a control group of 5 subjects each. A test compound (10 mg/kg) was dissolved in purified water, and orally administered. Purified water alone was orally administered to the mice of the control group. One half, 6, and 12 hours after the administration, the blood was collected from each mouse through the orbital venous plexus thereof. The collected blood was immediately centrifuged to isolate the plasma, and the DPP-IV activity of the plasma was measured.
(§2) The process of plasma DPP-IV activity determination was as follows: The reaction was performed in a 96-well plate. 5 μl of the collected plasma was added to an aqueous solution (95 μl/well) comprises 25 mM Tris-HCl, 140 mM sodium chloride, 10 mM potassium chloride, 1% bovine serum albumin, and 0.01 mM Gly-Pro-AMC (Bachem), and incubated at room temperature for 20 minutes.
(§3) The fluorescent intensity of the well, to which was added the plasma collected from the control group, was 100%. Based on it, the DPP-IV activity of the plasma collected from the test compound-administered mice was calculated, and the activity difference between the control group and the test group was obtained. This indicated the inhibition in the test group.

[3] = biological target: T3, plasma DPP-IV (Rattus norvegicus, UniProt P14740); test: Test for DPP-IV inhibiting activity duration in rats; type: in vivo; details: po
T3 construct: The collected blood was immediately centrifuged to isolate the plasma; from tissue; host or cells: plasma of male SD rats (Clea Japan)
T3 sequence (P14740 37-767 limits assumed): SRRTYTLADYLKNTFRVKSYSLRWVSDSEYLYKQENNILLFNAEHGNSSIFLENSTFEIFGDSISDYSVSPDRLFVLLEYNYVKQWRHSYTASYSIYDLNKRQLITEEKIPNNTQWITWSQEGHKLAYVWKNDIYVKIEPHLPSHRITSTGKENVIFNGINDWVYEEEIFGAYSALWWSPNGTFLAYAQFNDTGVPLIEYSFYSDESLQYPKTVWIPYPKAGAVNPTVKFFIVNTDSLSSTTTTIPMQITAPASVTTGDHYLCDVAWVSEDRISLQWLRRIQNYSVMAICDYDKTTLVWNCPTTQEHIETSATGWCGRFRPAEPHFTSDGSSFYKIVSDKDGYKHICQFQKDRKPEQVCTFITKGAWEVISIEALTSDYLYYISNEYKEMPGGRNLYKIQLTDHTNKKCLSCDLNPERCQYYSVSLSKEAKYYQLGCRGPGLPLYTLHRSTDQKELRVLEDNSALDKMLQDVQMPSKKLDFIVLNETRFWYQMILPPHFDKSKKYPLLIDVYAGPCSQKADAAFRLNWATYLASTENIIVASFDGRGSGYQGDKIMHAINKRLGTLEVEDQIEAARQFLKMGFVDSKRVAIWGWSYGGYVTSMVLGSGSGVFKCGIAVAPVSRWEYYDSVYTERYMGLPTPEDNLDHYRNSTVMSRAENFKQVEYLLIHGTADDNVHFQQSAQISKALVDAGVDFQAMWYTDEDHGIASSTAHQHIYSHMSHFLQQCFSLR
Protocol: as §2
(3) Test for DPP-IV Inhibiting Activity Duration in Rats:
as §1, with “SD rats (Clea Japan)” for “ICR mice (Nippon SLC)”, “rats” for “mice”, “rat” for “mouse”, “tail vein” for “orbital venous plexus”, “measured according to the same process as in the dipeptidyl peptidase-IV (DPP-IV) inhibiting activity duration test shown in (2).” for “measured.”
as §3, with “rats” for “mice”

[4] = plasma from healthy adult volunteers, 0.01 mM Gly-Pro-AMC, room temperature, 20 minutes, read-out: IC50 (DPP-IV inhibiting activity)
[5] = male ICR mice, 10 mg/kg orally, 12 h after administration, relative to control group, read-out: inhibition of plasma DPP-IV activity after 12 h
[6] = read-out: inhibition of plasma DPP-IV activity after 6 h, male ICR mice, 10 mg/kg orally, 6 h after administration, relative to control group
[7] = male SD rats, 10 mg/kg orally, 12 h after administration, relative to control group, read-out: inhibition of plasma DPP-IV activity after 12 h
[8] = read-out: inhibition of plasma DPP-IV activity after 6 h, male SD rats, 10 mg/kg orally, 6 h after administration, relative to control group
[9] = read-out: inhibition of plasma DPP-IV activity after 6 h
[10] = read-out: inhibition of plasma DPP-IV activity after 12 h

T1 sequence (P27487 39-766 limits assumed): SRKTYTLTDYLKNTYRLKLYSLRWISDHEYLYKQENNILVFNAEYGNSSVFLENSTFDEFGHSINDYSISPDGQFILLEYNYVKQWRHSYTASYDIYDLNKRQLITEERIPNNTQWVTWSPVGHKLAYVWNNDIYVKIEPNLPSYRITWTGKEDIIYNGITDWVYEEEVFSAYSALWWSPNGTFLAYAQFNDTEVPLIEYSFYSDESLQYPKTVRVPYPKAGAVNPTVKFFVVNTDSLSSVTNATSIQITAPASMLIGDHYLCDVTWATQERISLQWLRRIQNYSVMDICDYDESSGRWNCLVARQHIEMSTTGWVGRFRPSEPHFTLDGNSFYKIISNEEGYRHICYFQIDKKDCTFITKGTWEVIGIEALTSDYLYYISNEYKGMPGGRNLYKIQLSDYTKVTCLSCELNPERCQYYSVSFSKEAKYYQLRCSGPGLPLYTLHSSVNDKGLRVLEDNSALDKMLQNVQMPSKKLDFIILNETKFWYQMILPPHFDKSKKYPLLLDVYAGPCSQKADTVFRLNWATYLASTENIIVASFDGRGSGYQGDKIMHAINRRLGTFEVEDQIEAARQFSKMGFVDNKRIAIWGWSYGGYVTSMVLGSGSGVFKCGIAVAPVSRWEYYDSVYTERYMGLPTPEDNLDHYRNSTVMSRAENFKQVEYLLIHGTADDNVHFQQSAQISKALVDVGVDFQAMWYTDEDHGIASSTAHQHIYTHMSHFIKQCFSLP

SMILES	IC50 [1, 4]	inhibition at 10 mg/kg [2, 5]	inhibition at 10 mg/kg [2, 6]	inhibition at 10 mg/kg [3, 7]	inhibition at 10 mg/kg [3, 8]	further results
N#C[C@@H]1C[C@H](F)CN1C(=O)CNC1CCN(C(=O)CO)CC1 [Example 21]	6 nM	71%	78%			
CC1(NCC(=O)N2C[C@@H](F)C[C@H]2C#N)CCN(C(=O)CO)CC1 [Example 34]	8.2 nM	79%	85%	94%	96%	
CC1(NCC(=O)N2C[C@@H](F)C[C@H]2C#N)CCN(C(=O)CF)CC1 [Example 41]						IC50 [1]: 5.9 nM; inhibition at 10 mg/kg [2, 9]: 83%; inhibition at 10 mg/kg [2, 10]: 78%; inhibition at 10 mg/kg [3, 9]: 93%; inhibition at 10 mg/kg [3, 10]: 89%
COCC(=O)N1CCC(NCC(=O)N2CCC[C@H]2C#N)CC1 [compound 2, reference compound]				55%	77%	
COC(C)S(=O)(=O)N1CCC(C)(NCC(=O)N2C[C@@H](F)C[C@H]2C#N)CC1 (stereo partly shown) [compound 3, reference compound]				45%	80%	

Second part, led by results:

IC50 [1, 4]	inhibition at 10 mg/kg [2, 5]	inhibition at 10 mg/kg [2, 6]	inhibition at 10 mg/kg [3, 7]	inhibition at 10 mg/kg [3, 8]	SMILES	further results
4.2 nM	59%	74%			CS(=O)(=O)N1CCC(NCC(=O)N2C[C@@H](F)C[C@H]2C#N)CC1 [Example 1, (2S,4S)-4-fluoro-1-({[1-(methanesulfonyl)piperidin-4-yl]amino}acetyl)pyrrolidine-2-carbonitrile monofumarate]	
4.2 nM	61%	72%			N#C[C@@H]1C[C@H](F)CN1C(=O)CNC1CCN(C=O)CC1 [Example 19]	
5.1 nM					N#C[C@@H]1C[C@H](F)CN1C(=O)CNC1CCN(C(=O)N2CCOCC2)CC1 [Example 28]	
7.5 nM	78%	81%	86%	92%	CC1(NCC(=O)N2C[C@@H](F)C[C@H]2C#N)CCN(C=O)CC1 [Example 36]	
			38%	65%	CS(=O)(=O)N1CCC(NCC(=O)N2CCC[C@H]2C#N)CC1 [compound 1, reference compound]	
